Key:
Assay type in all cases: in vivo
[1] = system: ryegrass, Italian (Italian ryegrass, Lolium multiflorum); assay: Test F pre-/postemergence: ryegrass, Italian
Source text: Seeds of plant species selected from corn (Zea mays), soybean (Glycine max), velvetleaf (Abutilon theophrasti), lambsquarters (Chenopodium album), poinsettia, wild (wild poinsettia, Euphorbia heterophylla), pigweed, palmer (palmer pigweed, Amaranthus palmeri), waterhemp (common waterhemp, Amaranthus rudis), surinam grass (Brachiaria decumbens), crabgrass, Brazil (Brazilian crabgrass, Digitaria horizontalis), panicum, fall (fall panicum Panicum dichotomiflorum), crabgrass, large (large crabgrass, Digitaria sanguinalis), foxtail, giant (giant foxtail, Setaria faberii), foxtail, green (green foxtail Setaria viridis), goosegrass (Eleusine indica), ragweed (common ragweed, Ambrosia elatior), barnyardgrass (Echinochloa crus-galli), sandbur (southern sandbur, Cenchrus echinatus), arrowleaf sida (Sida rhombifolia), ryegrass, Italian (Italian ryegrass, Lolium multiflorum), dayflower, VA (Virginia (VA) dayflower, Commelina virginica), field bindweed (Convolvulus arvensis), cocklebur (common cocklebur, Xanthium strumarium), morningglory (Ipomoea coccinea), nightshade (eastern black nightshade, Solanum ptycanthum), kochia (Kochia scoparia), nutsedge, yellow (yellow nutsedge, Cyperus esculentus), johnsongrass (Sorghum halepense), smartweed (ladysthumb smartweed, Polygonum persicaria), and beggarticks (hairy beggarticks, Bidens pilosa), were planted into a silt loam soil and treated preemergence with test chemicals formulated in a non-phytotoxic solvent mixture which included a surfactant. At the same time, plants selected from these crop and weed species and also pigweed (Amaranthus retroflexus), waterhemp_RES1 (ALS/Triazine resistant common waterhemp, Amaranthus rudis) and waterhemp_RES2 (ALS/HPPD resistant common waterhemp, Amaranthus rudis) were planted in pots containing a planting medium comprising spaghnum peat moss, vermiculite, wetting agent and starter nutrients treated with postemergence applications of some of the test chemicals formulated in the same manner. Plants ranged in height from 2 to 18 cm for postemergence treatments (1- to 4-leaf stage).
Treated plants and controls were maintained in a greenhouse for 14 to 21 days, after which time all species were compared to controls and visually evaluated. Plant response ratings, summarized in Table E, are based on a scale of 0 to 100 where 0 is no effect and 100 is complete control. A dash (-) response means no test result.

[2] = system: sandbur (southern sandbur, Cenchrus echinatus); assay: Test F pre-/postemergence: sandbur
How it was run: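 0–100 visual control scores, taken 14–21 d after application in the greenhouse. Preemergence treatment was made to silt loam soil at sowing. Postemergence sprays hit 1- to 4-leaf plants (2–18 cm) in peat/vermiculite mix. Surfactant-containing non-phytotoxic solvent served as the vehicle.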

[3] = system: buckwheat, wild (wild buckwheat, Polygonum convolvulus); assay: Test D pre-/postemergence: buckwheat, wild
How it was run: (§1)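 Applied as a non-phytotoxic solvent formulation with surfactant, compounds were tested preemergence in silt loam and postemergence on seedlings 2 to 18 cm high in peat-vermiculite medium. Evaluation was visual, 0 meaning no effect and 100 complete control, at 14 to 21 days.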

[4] = system: galium (catchweed bedstraw, Galium aparine); assay: Test D pre-/postemergence: galium; details: Postemergence; for Plant response rating, Galium: 16 g ai/ha, scale 0 to 100
How it was run: as §1

[5] = system: pigweed (Amaranthus retroflexus); assay: Test D pre-/postemergence: pigweed
How it was run: as §1

[6] = Preemergence, 16 g ai/ha, scale 0 to 100, 0 no effect, 100 complete control
[7] = Preemergence, 31 g ai/ha, scale 0 to 100, 0 no effect, 100 complete control
[8] = Preemergence, 125 g ai/ha, scale 0 to 100
[9] = Preemergence, 250 g ai/ha, scale 0 to 100
[10] = Postemergence, 31 g ai/ha, scale 0 to 100 (0 no effect, 100 complete control)
[11] = Postemergence, 62 g ai/ha, scale 0 to 100 (0 no effect, 100 complete control)
[12] = Postemergence, 125 g ai/ha, scale 0 to 100, 0 no effect, 100 complete control
[13] = Postemergence, 16 g ai/ha, scale 0 to 100
[14] = Preemergence, 62 g ai/ha, scale 0 to 100
[15] = 31 g ai/ha, scale 0 to 100 (0 no effect, 100 complete control)
[16] = 62 g ai/ha, scale 0 to 100 (0 no effect, 100 complete control)
[17] = 125 g ai/ha, scale 0 to 100, 0 no effect, 100 complete control
[18] = Postemergence, 250 g ai/ha, scale 0 to 100
[19] = Postemergence, 31 g ai/ha, scale 0 to 100
[20] = Postemergence, 62 g ai/ha, scale 0 to 100
[21] = Postemergence, 125 g ai/ha, scale 0 to 100
[22] = Postemergence, 8 g ai/ha, scale 0 to 100
[23] = Preemergence, 8 g ai/ha, scale 0 to 100, 0 no effect, 100 complete control

## Cc1nn(-c2ccc(F)cc2F)nc1Oc1ccnc(C(F)(F)F)c1 [Compound 146]
[1]; [6]
  Plant response rating, Ryegrass, Italian: 0
[1]; [7]
  Plant response rating, Ryegrass, Italian: 10
[1]; [8]
  Plant response rating, Ryegrass, Italian: 20
[1]; [9]
  Plant response rating, Ryegrass, Italian: 25
[2]; [6]
  Plant response rating, Sandbur: 0
[2]; [7]
  Plant response rating, Sandbur: 0
[2]; [8]
  Plant response rating, Sandbur: 25
[2]; [9]
  Plant response rating, Sandbur: 70

## Cc1nn(-c2ccc(C(F)(F)F)c(F)c2)nc1Oc1ccnc(C(F)(F)F)c1 [Compound 148]
[3]; [10]
  Plant response rating: Buckwheat, Wild: 60
[3]; [11]
  Plant response rating: Buckwheat, Wild: 75
[3]; [12]
  Plant response rating: Buckwheat, Wild: 70
[3]; [13]
  Plant response rating, Buckwheat, Wild: 60
[3]; [6]
  Plant response rating, Buckwheat, Wild: 20
[3]; [7]
  Plant response rating, Buckwheat, Wild: 30
[3]; [14]
  Plant response rating, Buckwheat, Wild: 65
[3]; [8]
  Plant response rating, Buckwheat, Wild: 50
[1]; [6]
  Plant response rating, Ryegrass, Italian: 0
[1]; [7]
  Plant response rating, Ryegrass, Italian: 0
[1]; [8]
  Plant response rating, Ryegrass, Italian: 95
[1]; [9]
  Plant response rating, Ryegrass, Italian: 100
[2]; [6]
  Plant response rating, Sandbur: 0
[2]; [7]
  Plant response rating, Sandbur: 0
[2]; [8]
  Plant response rating, Sandbur: 70
[2]; [9]
  Plant response rating, Sandbur: 100
[4]; [15]
  Plant response rating: Galium: 70
[4]; [16]
  Plant response rating: Galium: 70
[4]; [17]
  Plant response rating: Galium: 75
[4]
  Plant response rating, Galium: 60
[5]; [10]
  Plant response rating: Pigweed: 85
[5]; [11]
  Plant response rating: Pigweed: 95
[5]; [12]
  Plant response rating: Pigweed: 95
[5]; [13]
  Plant response rating, Pigweed: 70
[5]; [6]
  Plant response rating, Pigweed: 15
[5]; [7]
  Plant response rating, Pigweed: 70
[5]; [14]
  Plant response rating, Pigweed: 85
[5]; [8]
  Plant response rating, Pigweed: 100

## CCc1nn(-c2ccc(F)cc2)nc1Cc1ccnc(C(F)(F)F)c1 [Compound 154]
[1]; [6]
  Plant response rating, Ryegrass, Italian: 0
[1]; [7]
  Plant response rating, Ryegrass, Italian: 0
[1]; [8]
  Plant response rating, Ryegrass, Italian: 70
[1]; [9]
  Plant response rating, Ryegrass, Italian: 100
[2]; [6]
  Plant response rating, Sandbur: 0
[2]; [7]
  Plant response rating, Sandbur: 30
[2]; [8]
  Plant response rating, Sandbur: 98
[2]; [9]
  Plant response rating, Sandbur: 100

## CCc1nn(-c2ccc(C(F)(F)F)cc2)nc1Cc1ccnc(C(F)(F)F)c1 [Compound 155]
[3]; [10]
  Plant response rating: Buckwheat, Wild: 70
[3]; [11]
  Plant response rating: Buckwheat, Wild: 70
[3]; [12]
  Plant response rating: Buckwheat, Wild: 75
[3]; [13]
  Plant response rating, Buckwheat, Wild: 75
[3]; [6]
  Plant response rating, Buckwheat, Wild: 10
[3]; [7]
  Plant response rating, Buckwheat, Wild: 25
[3]; [14]
  Plant response rating, Buckwheat, Wild: 50
[3]; [8]
  Plant response rating, Buckwheat, Wild: 70
[1]; [8]
  Plant response rating, Ryegrass, Italian: 85
[1]; [9]
  Plant response rating, Ryegrass, Italian: 95
[2]; [8]
  Plant response rating, Sandbur: 100
[2]; [9]
  Plant response rating, Sandbur: 100
[4]; [15]
  Plant response rating: Galium: 70
[4]; [16]
  Plant response rating: Galium: 70
[4]; [17]
  Plant response rating: Galium: 75
[4]
  Plant response rating, Galium: 65
[5]; [10]
  Plant response rating: Pigweed: 75
[5]; [11]
  Plant response rating: Pigweed: 95
[5]; [12]
  Plant response rating: Pigweed: 95
[5]; [13]
  Plant response rating, Pigweed: 70
[5]; [6]
  Plant response rating, Pigweed: 60
[5]; [7]
  Plant response rating, Pigweed: 80
[5]; [14]
  Plant response rating, Pigweed: 100
[5]; [8]
  Plant response rating, Pigweed: 100

## CCc1nn(-c2ccc(C(F)(F)F)cc2)nc1Oc1ccnc(C(F)(F)F)c1 [Compound 169]
[1]; [18]
  Plant response rating, Ryegrass, Italian: 30
[1]; [13]
  Plant response rating, Ryegrass, Italian: 0
[1]; [19]
  Plant response rating, Ryegrass, Italian: 0
[1]; [20]
  Plant response rating, Ryegrass, Italian: 20
[1]; [21]
  Plant response rating, Ryegrass, Italian: 20
[1]; [6]
  Plant response rating, Ryegrass, Italian: 0
[1]; [7]
  Plant response rating, Ryegrass, Italian: 0
[1]; [8]
  Plant response rating, Ryegrass, Italian: 100
[1]; [9]
  Plant response rating, Ryegrass, Italian: 100
[2]; [18]
  Plant response rating, Sandbur: 25
[2]; [13]
  Plant response rating, Sandbur: 15
[2]; [19]
  Plant response rating, Sandbur: 15
[2]; [20]
  Plant response rating, Sandbur: 20
[2]; [21]
  Plant response rating, Sandbur: 20
[2]; [6]
  Plant response rating, Sandbur: 0
[2]; [7]
  Plant response rating, Sandbur: 20
[2]; [8]
  Plant response rating, Sandbur: 65
[2]; [9]
  Plant response rating, Sandbur: 75

## CCc1nn(-c2ccc(F)c(F)c2)nc1Oc1ccnc(C(F)(F)F)c1 [Compound 171]
[1]; [6]
  Plant response rating, Ryegrass, Italian: 0
[1]; [7]
  Plant response rating, Ryegrass, Italian: 0
[1]; [8]
  Plant response rating, Ryegrass, Italian: 25
[1]; [9]
  Plant response rating, Ryegrass, Italian: 50
[2]; [6]
  Plant response rating, Sandbur: 0
[2]; [7]
  Plant response rating, Sandbur: 5
[2]; [8]
  Plant response rating, Sandbur: 50
[2]; [9]
  Plant response rating, Sandbur: 50

## CCCc1nn(-c2ccc(F)c(F)c2)nc1Oc1ccnc(C(F)(F)F)c1 [Compound 172]
[1]; [18]
  Plant response rating, Ryegrass, Italian: 50
[1]; [19]
  Plant response rating, Ryegrass, Italian: 20
[1]; [21]
  Plant response rating, Ryegrass, Italian: 40
[1]; [7]
  Plant response rating, Ryegrass, Italian: 35
[1]; [8]
  Plant response rating, Ryegrass, Italian: 100
[1]; [9]
  Plant response rating, Ryegrass, Italian: 100
[2]; [18]
  Plant response rating, Sandbur: 40
[2]; [19]
  Plant response rating, Sandbur: 20
[2]; [21]
  Plant response rating, Sandbur: 30
[2]; [7]
  Plant response rating, Sandbur: 5
[2]; [8]
  Plant response rating, Sandbur: 70
[2]; [9]
  Plant response rating, Sandbur: 100

## CCOc1nn(-c2ccc(F)cc2)nc1Cc1ccnc(C(F)(F)F)c1 [Compound 196, 4-[[5-ethoxy-2-(4-fluorophenyl)-2H-1,2,3-triazol-4-yl]methyl]-2-(trifluoromethyl)pyridine]
[3]; [10]
  Plant response rating: Buckwheat, Wild: 70
[3]; [11]
  Plant response rating: Buckwheat, Wild: 90
[3]; [12]
  Plant response rating: Buckwheat, Wild: 95
[3]; [13]
  Plant response rating, Buckwheat, Wild: 50
[3]; [6]
  Plant response rating, Buckwheat, Wild: 60
[3]; [7]
  Plant response rating, Buckwheat, Wild: 45
[3]; [14]
  Plant response rating, Buckwheat, Wild: 70
[3]; [8]
  Plant response rating, Buckwheat, Wild: 95
[1]; [22]
  Plant response rating, Ryegrass, Italian: 15
[1]; [13]
  Plant response rating, Ryegrass, Italian: 20
[1]; [19]
  Plant response rating, Ryegrass, Italian: 40
[1]; [20]
  Plant response rating, Ryegrass, Italian: 70
[1]; [21]
  Plant response rating, Ryegrass, Italian: 80
[1]; [23]
  Plant response rating, Ryegrass, Italian: 0
[1]; [6]
  Plant response rating, Ryegrass, Italian: 40
[1]; [7]
  Plant response rating, Ryegrass, Italian: 75
[1]; [8]
  Plant response rating, Ryegrass, Italian: 100
[2]; [22]
  Plant response rating, Sandbur: 10
[2]; [13]
  Plant response rating, Sandbur: 20
[2]; [19]
  Plant response rating, Sandbur: 20
[2]; [20]
  Plant response rating, Sandbur: 30
[2]; [21]
  Plant response rating, Sandbur: 50
[2]; [23]
  Plant response rating, Sandbur: 5
[2]; [6]
  Plant response rating, Sandbur: 5
[2]; [7]
  Plant response rating, Sandbur: 5
[2]; [8]
  Plant response rating, Sandbur: 98
[4]; [15]
  Plant response rating: Galium: 85
[4]; [16]
  Plant response rating: Galium: 70
[4]; [17]
  Plant response rating: Galium: 90
[4]
  Plant response rating, Galium: 70
[5]; [10]
  Plant response rating: Pigweed: 95
[5]; [11]
  Plant response rating: Pigweed: 95
[5]; [12]
  Plant response rating: Pigweed: 100
[5]; [13]
  Plant response rating, Pigweed: 85
[5]; [6]
  Plant response rating, Pigweed: 65
[5]; [7]
  Plant response rating, Pigweed: 100
[5]; [14]
  Plant response rating, Pigweed: 100
[5]; [8]
  Plant response rating, Pigweed: 100
